The values below come from patent EP0754455A1, “PHARMACEUTICAL COMPOSITIONS BASED ON AMINOMETHYLINDOLES AND THEIR THERAPEUTICAL APPLICATION AS NEUROPROTECTORS IN PARKINSON AND ALZHEIMER DISEASES” (CONSEJO SUPERIOR INVESTIGACIONES CIENTIFICAS (CSIC), priority 1995, dated 1996).

One experiment deals with T1, dopamine carrier (Homo sapiens, UniProt Q01959).
T1 construct: This assay was carried out in purified synaptosomes of human caudate; from tissue; host or cells: post-mortem human caudate, purified synaptosomes
T1 sequence (Q01959 whole entry): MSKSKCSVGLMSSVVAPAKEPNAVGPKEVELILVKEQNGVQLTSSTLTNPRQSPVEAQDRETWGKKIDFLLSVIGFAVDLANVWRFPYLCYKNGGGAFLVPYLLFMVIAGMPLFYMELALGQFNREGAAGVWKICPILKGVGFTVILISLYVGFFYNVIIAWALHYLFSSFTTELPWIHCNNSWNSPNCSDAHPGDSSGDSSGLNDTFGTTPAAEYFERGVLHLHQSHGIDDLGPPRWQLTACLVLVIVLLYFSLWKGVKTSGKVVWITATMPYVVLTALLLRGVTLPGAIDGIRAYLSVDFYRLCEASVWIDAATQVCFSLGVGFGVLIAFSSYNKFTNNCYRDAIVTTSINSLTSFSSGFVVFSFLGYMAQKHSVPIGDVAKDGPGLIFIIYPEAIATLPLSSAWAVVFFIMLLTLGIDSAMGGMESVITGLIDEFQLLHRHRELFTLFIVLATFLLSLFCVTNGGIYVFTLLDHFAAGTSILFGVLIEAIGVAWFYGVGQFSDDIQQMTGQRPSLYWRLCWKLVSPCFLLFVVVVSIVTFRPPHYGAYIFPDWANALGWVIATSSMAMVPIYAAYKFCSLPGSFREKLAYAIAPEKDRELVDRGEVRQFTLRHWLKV
The experiment can be described thus: Dopamine carrier inhibition in purified synaptosomes of human caudate. Type of experiment: biochemical. The following applies: human caudate synaptosomes, dopamine (DA) 0.1 µM; read-out: IC50(max). As to the method: This assay was carried out in purified synaptosomes of human caudate obtained using the same method as described by Rodríguez et al. 1987 Biochem Pharmac 36, 974-976.
The studies were carried out with the same inhibitors used in the rat tissue. The dopamine (DA) concentration was 0.1 µM, a value chosen from the kinetic constants obtained.

The next experiment addresses T2, MAO-A (Mus musculus, UniProt Q64133).
T2 construct: the brains homogenised in potassium phosphate buffer 50 mM, pH 7.2; from tissue; host or cells: C57/BL mouse brain homogenate
T2 sequence (Q64133 1-526): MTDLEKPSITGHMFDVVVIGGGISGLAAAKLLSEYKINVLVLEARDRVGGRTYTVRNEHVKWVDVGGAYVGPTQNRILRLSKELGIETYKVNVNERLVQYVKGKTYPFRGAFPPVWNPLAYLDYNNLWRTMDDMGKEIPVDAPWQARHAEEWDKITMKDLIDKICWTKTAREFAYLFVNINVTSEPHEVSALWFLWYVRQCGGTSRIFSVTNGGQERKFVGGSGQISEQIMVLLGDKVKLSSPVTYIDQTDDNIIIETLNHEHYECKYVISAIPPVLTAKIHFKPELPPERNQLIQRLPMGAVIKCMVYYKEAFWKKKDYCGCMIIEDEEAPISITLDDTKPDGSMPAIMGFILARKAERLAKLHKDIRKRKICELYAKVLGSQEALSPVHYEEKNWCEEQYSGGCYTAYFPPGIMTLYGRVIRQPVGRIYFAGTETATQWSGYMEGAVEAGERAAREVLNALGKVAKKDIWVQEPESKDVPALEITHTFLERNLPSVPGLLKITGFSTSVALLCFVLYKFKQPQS
Put plainly: Ex vivo inhibition of brain MAO-A after i.p. administration. The format is in vivo, C57/BL mice. To be noted: mouse brain homogenate 2 hours after i.p., l-deprenyl 10 mg/Kg, tested compound 4 mg/Kg. On the procedure:
The pharmacological assays were carried out on C57/BL mice. These animals are sensitive to the induction of the symptomatology of Parkinson's disease through the action of MPTP.
The animals were sacrificed by decapitation after 2 hours and the brains homogenised in potassium phosphate buffer 50 mM, pH 7.2. Determinations were made of the MAO-A and MAO-B activity in each case using radiometric methods.

pIC50: −log10 of the molar value.

Take `C#CCNCc1cc2cc(OCc3ccccc3)ccc2[nH]1` [FA-73]: on dopamine carrier, the pIC50 was 6.44. The compound also registered a remaining activity at 4 mg/kg on MAO-A (ip, control = 100%) of 96.2%. Besides, the “MAO-A ACTIVITY” value at MAO-A (control 485) came to 467.

In general, pIC50 refers to the IC50 on a negative log10 scale, so that one unit is a factor of ten. Broadly, the remaining activity is the signal under treatment as a percentage of the control signal. Read a low remaining activity as little activity left.
